Measurements from ChEMBL document CHEMBL1133403 (Bioorg Med Chem Lett, 2000).
Activity calls are given as the source filed them. The calls are words filed in the database; no cut-off is given here.

Legend:
Androgen receptor = target: T1, Androgen receptor (Homo sapiens, UniProt P10275); test: Cross-reactivity as binding to human androgen receptor (hAR); format: functional
T1 sequence (P10275 whole entry): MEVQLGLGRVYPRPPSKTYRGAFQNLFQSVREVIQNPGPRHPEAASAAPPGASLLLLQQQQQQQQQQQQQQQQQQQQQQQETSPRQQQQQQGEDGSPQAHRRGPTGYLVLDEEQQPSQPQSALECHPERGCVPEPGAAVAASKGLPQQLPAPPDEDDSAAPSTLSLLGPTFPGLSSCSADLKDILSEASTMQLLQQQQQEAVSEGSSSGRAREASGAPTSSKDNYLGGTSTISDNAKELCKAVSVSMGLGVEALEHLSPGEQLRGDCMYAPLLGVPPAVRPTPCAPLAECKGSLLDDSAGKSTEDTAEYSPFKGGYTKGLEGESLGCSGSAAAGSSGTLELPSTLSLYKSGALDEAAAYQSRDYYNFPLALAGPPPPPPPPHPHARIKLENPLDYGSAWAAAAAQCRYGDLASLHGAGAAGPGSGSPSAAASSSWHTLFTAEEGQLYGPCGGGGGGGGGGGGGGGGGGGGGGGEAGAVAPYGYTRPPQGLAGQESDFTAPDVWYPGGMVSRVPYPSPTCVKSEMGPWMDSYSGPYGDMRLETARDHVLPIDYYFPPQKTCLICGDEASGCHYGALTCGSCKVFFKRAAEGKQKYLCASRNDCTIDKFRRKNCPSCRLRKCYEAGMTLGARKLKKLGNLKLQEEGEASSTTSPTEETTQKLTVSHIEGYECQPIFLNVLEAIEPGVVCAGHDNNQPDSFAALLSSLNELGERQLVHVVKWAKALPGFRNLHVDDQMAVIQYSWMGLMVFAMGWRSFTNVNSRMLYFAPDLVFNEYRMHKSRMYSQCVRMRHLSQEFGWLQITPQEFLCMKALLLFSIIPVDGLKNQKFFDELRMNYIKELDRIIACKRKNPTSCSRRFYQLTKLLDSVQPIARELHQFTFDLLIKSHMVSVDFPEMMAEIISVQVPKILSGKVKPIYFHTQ

[1] = target: T2, Mineralocorticoid receptor (Homo sapiens, UniProt P08235); test: Cross-reactivity as binding to human mineralocorticoid receptor (hMR); format: functional
T2 sequence (P08235 whole entry): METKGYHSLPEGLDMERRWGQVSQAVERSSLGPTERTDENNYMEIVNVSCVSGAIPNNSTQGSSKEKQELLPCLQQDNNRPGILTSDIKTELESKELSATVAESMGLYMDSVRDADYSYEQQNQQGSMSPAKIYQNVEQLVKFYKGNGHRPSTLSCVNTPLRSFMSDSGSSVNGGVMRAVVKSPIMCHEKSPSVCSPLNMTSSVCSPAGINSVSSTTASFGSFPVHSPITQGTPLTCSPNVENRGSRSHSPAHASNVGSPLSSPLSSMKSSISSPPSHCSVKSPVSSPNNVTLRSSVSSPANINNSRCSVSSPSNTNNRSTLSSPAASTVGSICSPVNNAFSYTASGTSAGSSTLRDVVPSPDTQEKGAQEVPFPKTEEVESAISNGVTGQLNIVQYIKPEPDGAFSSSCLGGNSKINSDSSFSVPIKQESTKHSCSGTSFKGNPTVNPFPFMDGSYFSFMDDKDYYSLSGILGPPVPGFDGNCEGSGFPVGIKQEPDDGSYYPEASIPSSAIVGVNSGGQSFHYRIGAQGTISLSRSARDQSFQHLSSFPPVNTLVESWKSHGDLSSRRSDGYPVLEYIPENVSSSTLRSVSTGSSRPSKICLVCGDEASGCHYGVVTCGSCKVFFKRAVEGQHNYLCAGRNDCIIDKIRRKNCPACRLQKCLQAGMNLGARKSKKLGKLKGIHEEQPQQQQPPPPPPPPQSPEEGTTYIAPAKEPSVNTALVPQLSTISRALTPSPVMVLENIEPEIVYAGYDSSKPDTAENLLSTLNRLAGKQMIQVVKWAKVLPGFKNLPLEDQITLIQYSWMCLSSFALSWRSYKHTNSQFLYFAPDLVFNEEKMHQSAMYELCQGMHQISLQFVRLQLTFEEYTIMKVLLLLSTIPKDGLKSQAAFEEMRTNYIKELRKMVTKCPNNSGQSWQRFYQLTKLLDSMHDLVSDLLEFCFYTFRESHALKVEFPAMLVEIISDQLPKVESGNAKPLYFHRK

Glucocorticoid receptor [2] = target: T3, Glucocorticoid receptor (Homo sapiens, UniProt P04150); test: Cross-reactivity as binding to human glucocorticoid receptor (hGR); format: functional
T3 sequence (P04150 whole entry): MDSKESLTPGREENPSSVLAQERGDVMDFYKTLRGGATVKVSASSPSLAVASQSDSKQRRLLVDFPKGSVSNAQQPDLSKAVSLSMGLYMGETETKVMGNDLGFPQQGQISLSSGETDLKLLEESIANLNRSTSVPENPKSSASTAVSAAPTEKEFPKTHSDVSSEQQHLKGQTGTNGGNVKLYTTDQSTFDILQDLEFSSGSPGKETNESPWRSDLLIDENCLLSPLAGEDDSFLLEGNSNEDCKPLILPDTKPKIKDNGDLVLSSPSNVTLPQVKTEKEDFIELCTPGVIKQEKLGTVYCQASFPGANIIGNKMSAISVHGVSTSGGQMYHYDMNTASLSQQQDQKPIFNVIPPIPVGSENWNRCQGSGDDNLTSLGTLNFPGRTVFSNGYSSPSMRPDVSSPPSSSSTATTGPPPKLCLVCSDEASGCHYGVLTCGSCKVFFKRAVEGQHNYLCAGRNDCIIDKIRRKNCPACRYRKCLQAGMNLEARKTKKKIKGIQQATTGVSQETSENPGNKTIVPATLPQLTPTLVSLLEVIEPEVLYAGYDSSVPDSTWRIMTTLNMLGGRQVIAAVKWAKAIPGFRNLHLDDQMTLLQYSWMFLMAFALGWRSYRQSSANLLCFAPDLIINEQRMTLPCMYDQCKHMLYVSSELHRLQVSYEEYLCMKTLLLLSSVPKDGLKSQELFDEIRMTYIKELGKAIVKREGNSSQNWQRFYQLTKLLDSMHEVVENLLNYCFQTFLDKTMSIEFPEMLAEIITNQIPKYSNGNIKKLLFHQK

Progesterone receptor [3] = target: T4, Progesterone receptor (Homo sapiens, UniProt P06401); test: Human progesterone receptor (hPR) agonist activity in T47D human breast cancer cell line; format: functional, cell-based
T4 sequence (P06401 whole entry): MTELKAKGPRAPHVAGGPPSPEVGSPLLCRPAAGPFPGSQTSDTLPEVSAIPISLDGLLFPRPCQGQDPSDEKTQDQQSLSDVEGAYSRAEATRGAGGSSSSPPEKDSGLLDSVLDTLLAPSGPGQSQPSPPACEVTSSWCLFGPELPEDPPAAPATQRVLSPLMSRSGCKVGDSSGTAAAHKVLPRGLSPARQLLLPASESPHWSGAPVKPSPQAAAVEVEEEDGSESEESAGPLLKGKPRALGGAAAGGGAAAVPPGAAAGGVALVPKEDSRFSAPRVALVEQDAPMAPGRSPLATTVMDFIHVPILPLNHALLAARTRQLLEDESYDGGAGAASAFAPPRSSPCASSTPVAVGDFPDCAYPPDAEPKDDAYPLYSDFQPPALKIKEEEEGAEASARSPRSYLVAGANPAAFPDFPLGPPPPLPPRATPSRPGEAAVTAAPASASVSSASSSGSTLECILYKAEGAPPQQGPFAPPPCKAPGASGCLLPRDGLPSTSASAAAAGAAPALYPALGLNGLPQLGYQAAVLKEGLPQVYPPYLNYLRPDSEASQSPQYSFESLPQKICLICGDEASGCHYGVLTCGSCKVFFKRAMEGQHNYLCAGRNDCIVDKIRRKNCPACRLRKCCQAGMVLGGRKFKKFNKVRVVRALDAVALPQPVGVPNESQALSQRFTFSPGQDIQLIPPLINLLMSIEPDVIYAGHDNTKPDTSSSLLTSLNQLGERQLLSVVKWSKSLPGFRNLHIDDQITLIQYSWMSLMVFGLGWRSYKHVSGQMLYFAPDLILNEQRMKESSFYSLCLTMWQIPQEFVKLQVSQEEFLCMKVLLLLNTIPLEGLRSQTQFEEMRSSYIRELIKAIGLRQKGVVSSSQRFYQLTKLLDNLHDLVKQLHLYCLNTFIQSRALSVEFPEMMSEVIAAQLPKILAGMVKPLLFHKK

Progesterone receptor [4] = target: T4, Progesterone receptor; test: Human progesterone receptor (hPR) agonist activity using cotransfection assay in CV-1 cells.; format: functional, cell-based
Progesterone receptor [5] = target: T4, Progesterone receptor; test: Antagonist activity against human progesterone receptor (hPR) in T47D human breast cancer cell line; format: functional, cell-based
Progesterone receptor [6] = target: T4, Progesterone receptor; test: Binding affinity against human progesterone receptor (hPR) in a competitive binding assay
Progesterone receptor [7] = target: T4, Progesterone receptor; test: Antagonist activity against human progesterone receptor (hPR) using cotransfection assay in CV-1 cells; format: functional, cell-based
Progesterone receptor [8] = target: T4, Progesterone receptor; test: Human progesterone receptor (hPR) agonist activity in T47D human breast cancer cell line; NA=not active; format: functional, cell-based
[9] = target: T5, Glucocorticoid receptor (Homo sapiens) (UniProt P04150); test: Percent inhibition of glucocorticoid receptor transcriptional activity at Dexamethasone EC50; not active; format: functional
T5 sequence (whole entry): T3 sequence (P04150 whole entry)

[10] = target: Estrogen receptor (Homo sapiens) (UniProt Q92731+P03372); test: Percent inhibition of estrogen receptor transcriptional activity at estradiol EC50; NA=not active; format: functional
Glucocorticoid receptor [11] = target: T3, Glucocorticoid receptor; test: Cross-reactivity as binding to human glucocorticoid receptor (hGR); NA=not active; format: functional
Progesterone receptor [12] = target: T4, Progesterone receptor; test: Human progesterone receptor (hPR) agonist activity expressed in CV-1 cells; format: functional, cell-based
[13] = target: T6, Mineralocorticoid receptor (Homo sapiens) (UniProt P08235); test: Percent inhibition of mineralocorticoid receptor transcriptional activity at aldosterone EC50; NA=not active; format: functional
T6 sequence (whole entry): T2 sequence (P08235 whole entry)

[14] = target: T2, Mineralocorticoid receptor; test: Cross-reactivity as binding to human mineralocorticoid receptor (hMR); NA=not active; format: functional

Structure (SMILES) | EC50 (Progesterone receptor [3]) [nM] | EC50 (Progesterone receptor [4]) | IC50 (Progesterone receptor [5]) [nM] | Ki (Progesterone receptor [6]) [nM] | IC50 (Progesterone receptor [7]) [nM] | EC50 (Progesterone receptor [8]) | other results
Cc1cc(C#N)sc1-c1ccc2c(c1)C(C)CC(C)(C)N2 (configuration not stated) | – | – | – | – | – | – | IC50 (Androgen receptor): 45 nM; IC50 [1]: 1000 nM
CC1=CC(C)(C)Nc2ccc(-c3sc(C#N)cc3C)cc21 | 500 | Not Active | 123 | 26 | 33 | – | IC50 (Androgen receptor): 200 nM; IC50 (Glucocorticoid receptor [2]): 780 nM; IC50 [1]: 2000 nM
CC1=CC(C)(C)Nc2ccc(-c3sccc3C)cc21 | – | Not Active | 105 | 25 | 232 | Not Active | –
CC1(C)Nc2ccc(-c3csc(C#N)c3)cc2C(C)(C)C1=O | – | – | – | 12.4 | 14 | – | IC50 (Androgen receptor): 1100 nM; IC50 (Glucocorticoid receptor [2]): 900 nM; IC50 [1]: 2700 nM; EC50 (Progesterone receptor [12]): 1190 nM
CC1=CC(C)(C)Nc2ccc(-c3cccs3)cc21 | – | Not Active | 700 | 237 | 416 | Not Active | –
Cc1cc(C#N)sc1-c1ccc2c(c1)C(C)(C)C(=O)C(C)(C)N2 | – | – | – | 3.9 | 10 | – | IC50 (Androgen receptor): 150 nM; IC50 (Glucocorticoid receptor [2]): 35 nM; IC50 [1]: 2100 nM; EC50 (Progesterone receptor [12]): 350 nM
CC1=CC(C)(C)Nc2ccc(-c3ccc(C#N)s3)cc21 | 1800 | – | 80 | 55 | 27 | – | IC50 (Androgen receptor): 1110 nM; IC50 (Glucocorticoid receptor [2]): 3200 nM; Efficacy [13]: inactive; IC50 [14]: Not Active; EC50 (Progesterone receptor [12]): 2900 nM
CC1=CC(C)(C)Nc2ccc(-c3ccc(C=O)s3)cc21 | – | Not Active | 78 | 80 | 729 | Not Active | –
CC1=CC(C)(C)Nc2ccc(-c3sc(C#N)cc3Br)cc21 | 700 | Not Active | 120 | 433 | 52 | – | –
CN(C)c1ccc([C@H]2C[C@]3(C)[C@@H](CC[C@]3(O)CCCO)[C@@H]3CCC4=CC(=O)CCC4=C32)cc1 [ONAPRISTONE] | – | Not Active | – | – | – | Not Active | –

Second part, led by results:

EC50 (Progesterone receptor [3]) [nM] | EC50 (Progesterone receptor [4]) | IC50 (Progesterone receptor [5]) [nM] | Ki (Progesterone receptor [6]) [nM] | IC50 (Progesterone receptor [7]) [nM] | EC50 (Progesterone receptor [8]) | Structure (SMILES) | other results
– | Not Active | 278 | > 100 | 318 | Not Active | CC1=CC(C)(C)Nc2ccc(-c3ccsc3C#N)cc21 | –
– | Not Active | 102 | 37 | 245 | Not Active | CC1=CC(C)(C)Nc2ccc(-c3csc(C=O)c3)cc21 | –
– | Not Active | – | – | – | – | CC1=CC(C)(C)Nc2ccc(-c3cc(F)cc(C#N)c3)cc21 | Efficacy [9]: inactive; Efficacy [10]: inactive; IC50 (Glucocorticoid receptor [11]): Not Active; IC50 [1]: > 1000 nM
2650 | Not Active | 151 | 12 | 43 | – | CC1=CC(C)(C)Nc2ccc(-c3ccc(Cl)s3)cc21 | –
– | Not Active | 71 | 31 | 65 | Not Active | CC1=CC(C)(C)Nc2ccc(-c3ccc(Br)s3)cc21 | –
3500 | – | 190 | 32 | 105 | – | CC1=CC(C)(C)Nc2ccc(-c3cc(Br)cs3)cc21 | –
– | Not Active | 250 | 249 | 242 | Not Active | CC1=CC(C)(C)Nc2ccc(-c3cc(Br)c(C#N)s3)cc21 | –
1400 | Not Active | 120 | 31 | 109 | – | CC1=CC(C)(C)Nc2ccc(-c3cc(C#N)sc3C)cc21 | –
580 | Not Active | 150 | 36 | 124 | – | CC1=CC(C)(C)Nc2ccc(-c3c(C)sc(C#N)c3C)cc21 | –
